Reference: EP3820879B1, “PHOSPHORUS-CONTAINING PRODRUGS OF GEMCITABINE” (Changchun Changcheng Pharmaceutical Technology Co., LTD, priority 2018, dated 2020)

Experiment: Mouse pharmacokinetic study: liver concentrations of dFdC and dFdU at 2h
Type: in vivo, C57BL/6 mice
Settings: i.v., Gemcitabine 15 mg/kg or Compound 4 at equivalent dose, Fig. 2
Procedure: C57BL/6 mice used in this experiment were purchased from Beijing Vital River Laboratory Animal Technology Co., Ltd., and male mice with a body weight in the range of 16~19 g were tested for administration. The animals were housed with appropriate air conditions (temperature: 20~25 °C; humidity: 40%~70%; light/dark cycle: 12 hours), and were provided with the food and water ad lib.
The solution media for IV administration were DMSO: 30% solutol HS-15:saline = 10:10:80 (v/v/v). Test substances were dissolved in the media to obtain a clear solution, and filtered through PTFE to get a colorless clear solution for IV administration.
The solution media for oral administration were DMSO: 30% solutol HS-15:saline = 10:10:80 (v/v/v). […]
The pharmacokinetic (PK) profile of liver-targeted gemcitabine (dFdC) prodrug according to Formula I (i.e., Compound 4) was evaluated in male […] mice following intravenous administration (i.v.) at an equivalent dose to 15 mg/kg of Gemcitabine or following oral administration (PO or i.g.) at a dose of 80 mg/kg.
Blood samples of designated animals (n = 3/time point/compound) were taken at 0.083, 0.25, 0.5, 1, 2, 4, and 8 hours following i.v. administration, and at 0.25, 0.5, 1, 2, 4, 8 and 24 hours following PO administration, respectively. […] Pharmacokinetic parameters were calculated using WinNonlin software (Pharsight Corp., Mountain View, CA).

With `Nc1ccn([C@@H]2O[C@H](CO)[C@@H](O)C2(F)F)c(=O)n1` [Gemcitabine, 2',2'-difluoro-2'-deoxycytidine] the “dFdC levels in the liver” value was “no detectable dFdC levels” and the “dFdU levels in the liver” value was “significant levels of dFdU”.
